From ChEMBL document CHEMBL1201862, “PubChem BioAssay data set” (2004)
The source made the active and inactive calls.

Tests used:
Assay type in all cases: functional
[1] = molecular target: T1, Short transient receptor potential channel 4 (Mus musculus, UniProt Q9QUQ5); test: block of DAMGO-driven TRPC4 calcium entry – cell-based, HEK293 TRPC4/mu-opioid, Fluo-4 calcium, dose response (AID 434942);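 further: potency of inhibitors blocking the TRPC4 calcium response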
T1 sequence (Q9QUQ5 whole entry): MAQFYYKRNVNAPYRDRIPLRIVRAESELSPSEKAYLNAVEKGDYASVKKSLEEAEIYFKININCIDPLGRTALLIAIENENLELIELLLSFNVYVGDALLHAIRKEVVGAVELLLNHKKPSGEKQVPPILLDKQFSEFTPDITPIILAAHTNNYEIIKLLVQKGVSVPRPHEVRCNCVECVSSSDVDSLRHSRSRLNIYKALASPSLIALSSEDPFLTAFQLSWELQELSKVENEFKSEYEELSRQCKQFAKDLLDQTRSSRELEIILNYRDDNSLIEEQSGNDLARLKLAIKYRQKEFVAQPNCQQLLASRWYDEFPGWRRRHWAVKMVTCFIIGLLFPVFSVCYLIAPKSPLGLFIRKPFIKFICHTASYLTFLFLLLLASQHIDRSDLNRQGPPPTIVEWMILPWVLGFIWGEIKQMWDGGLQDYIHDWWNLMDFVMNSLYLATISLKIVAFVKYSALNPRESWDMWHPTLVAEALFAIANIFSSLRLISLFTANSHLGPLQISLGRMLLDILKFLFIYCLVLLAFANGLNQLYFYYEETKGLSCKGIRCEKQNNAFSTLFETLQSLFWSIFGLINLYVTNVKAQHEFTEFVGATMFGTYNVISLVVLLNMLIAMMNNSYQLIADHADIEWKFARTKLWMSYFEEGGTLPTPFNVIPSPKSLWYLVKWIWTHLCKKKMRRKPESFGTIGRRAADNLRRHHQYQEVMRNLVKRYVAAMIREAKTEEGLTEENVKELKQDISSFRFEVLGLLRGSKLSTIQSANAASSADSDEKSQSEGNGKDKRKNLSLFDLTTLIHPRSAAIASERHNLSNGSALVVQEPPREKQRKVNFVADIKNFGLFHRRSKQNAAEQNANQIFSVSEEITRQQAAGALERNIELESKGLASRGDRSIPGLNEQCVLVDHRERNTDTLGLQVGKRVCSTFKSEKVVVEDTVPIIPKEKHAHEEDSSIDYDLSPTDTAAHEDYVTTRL

[2] = DRD fibroblast viability loss – cell-based, non-viral oncogenic, luminescence, dose response (AID 1934); settings: Homo sapiens
[3] = Luminescence Cell-Based Dose Retest to Confirm Inhibitors of Cancer Stem Cells. [Related pubchem assays (depositor defined):AID2717, AID2721]; settings: Homo sapiens
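Wherever AC50 is given: cells exposed to compound for roughly 70 hours or longer before luminescence read.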

EC50 [1] | SMILES | EC50 [2] | AC50 [3]
15 µM (active) | O=[N+]([O-])c1ccc(O)c(C2=NNC(c3ccccc3F)C2)c1 (stereo not drawn) | – | –
– | Cc1oc2c(c1C(=O)N1CCC(C)CC1)C(=O)c1ccccc1C2=O | 16.5 µM (active) | 6.94 µM (active)
